Reference: patent US20240009156A1, “METHODS AND FORMULATIONS FOR PRENATAL TREATMENT OF ALLAN-HERNDON-DUDLEY SYNDROME” (PriZm, LLC, priority 2022, published 2024)

What was measured:
[1] = T3 and T4 concentration in humans with MCT8 deficiency; format: in vivo
[2] = system: MCT8 mutant (mct8−/−) zebrafish; conditions: cited from earlier work
[3] = system: MCT8-deficient (knockout) mice (Mct8KO); conditions: cited from earlier work
[4] = system: MCT8-mutant (mct82/2) larvae; conditions: cited from earlier work
[5] = Effect of DITPA on removal of gastrostomy tube (G-tube); format: in vivo, human; conditions: one child who started DITPA while having a G-tube
wild type mice = conditions: T3-treated wild type mice; cited from earlier work
[6] = human, in vivo; cited from earlier work

Structure (SMILES): O=C(O)CCc1cc(I)c(Oc2ccc(O)cc2)c(I)c1 [DITPA, 3,5-diiodothyropropionic acid]
- T3 concentration [1]: reduction
- T4 concentration [1]: increase
- hypomyelination in the CNS [2]: TH analogs partially rescued the hypomyelination in the CNS of MCT8
- TH deficit [3]: corrects the TH deficit
- analysis of TH target genes: thyrotoxic state in the liver [3]: target genes revealed amelioration of the thyrotoxic state in the liver
- measurements and other parameters of TH action [3]: SRW101 normalized all measurements and other parameters of TH
- thyrotoxic effect in the liver [3]: without causing
- myelin and axon outgrowth deficiencies [4]: restored the myelin and axon outgrowth deficiencies in mct82/2 larvae
- G-tube [5]: removed
- body weight [5]: gained weight

Structure (SMILES): N[C@@H](Cc1cc(I)c(Oc2ccc(O)c(I)c2)c(I)c1)C(=O)O [T3, triiodothyronine]
- TEE (total energy expenditure) (wild type mice): mice showed increased food intake and TEE, similar to MCT8KO mice.
- food intake (wild type mice): mice showed increased food intake and TEE, similar to MCT8KO mice.

Structure (SMILES): O=C(O)Cc1cc(I)c(Oc2ccc(O)c(I)c2)c(I)c1 [TRIAC, triiodothyroacetic acid]
- effects in pediatric subjects [6]: analog Triac has also been studied in pediatric subjects with positive
